Measured values taken from US12350268B2, “Pharmaceutical compositions of PROTAC compounds and uses thereof” (Shenzhen Pharmacin Co., Ltd., priority 2022, dated 2025).
One block for each compound: values may come before it.

Assays:
[1] = PK of ARV-471 API high dose, fasted vs fed beagle dogs; assay type: in vivo; conditions: for AUC(0-inf) / AUC(0-t) / Cmax: beagle, dog, plasma, po, 200 mg, API capsule 200 mg oral, geometric mean
Method: (§1) To investigate the oral absorption of ARV-110, two-way crossover or three-way crossover designs were performed. Six Beagle dogs were classified into two or three groups. Each group was administered capsules of different formulations comprising the API or API only at various dose to compare the API absorption in such formulations and also any difference in API absorption in fasted or fed conditions. Each dog was administered with 50 mL water in total. To measure the absolute bioavailability, i.v. injection of a solution comprising API was also performed. The API solution for i.v. injection was prepared by dissolving in DMA and Solutol mixed solution.
(§2) In fasted condition, the dogs were allowed to drink water freely and were fasted for 12 hours before administration, and then were given food 4 hours after drug administration.
(§3) In fed condition, the dogs were fed with high-fat food 30 mins before administration, according to the FDA guidance entitled “Assessing the effects of food on drug in INDs and NDAs-Clinical pharmacology considerations” published on Feb. 26, 2019.
(§4) Blood samples were taken from each group of animals at the different time points after the drug administration. Plasma concentrations were analyzed by an LC-MS/MS method. The non-compartment model of software WinNonlin was used to calculate the pharmacokinetic parameters of each dog, Cmax, AUClast and AUCinf. The geometric averages of each parameters were used for comparisons of the in vivo absorption under different doing pretreatments.
(§5) To investigate the oral absorption of ARV-471, the same study design and procedures as described in Example 3 were performed.
A six-dog, two-way crossover study was performed to evaluate oral bioavailability of ARV-471 API dose escalation in beagle dogs in fasted and fed condition. There were two study groups, ARV-471 API orally administered in fasted condition and in fed condition, 200 mg of ARV-471 API was filled in each capsule. The capsules were given at the dose of 200 mg API per dog for oral administration for each group. The results shown in Table 5F include the geometric mean values as well as coefficient of variation (CV) of the pharmacokinetic parameters of two dosing groups.

[2] = PK of ARV-471 API, oral fasted and fed and i.v., beagle dogs; assay type: in vivo; conditions: for AUC(0-inf) / AUC(0-t) / Cmax: geometric mean
Method: as §1, §2, §3, §4, §5
A three-dog, two-way crossover study was performed to evaluate oral bioavailability of ARV-471 API in beagle dogs in fasted and fed condition. A three-dog study was performed to measure the ARV-471 API bioavailability after i.v. injection in fasted condition. Each capsule was filled with 60 mg of API powder and a 6 mg/vial API solution was prepared. One capsule or one vial of API solution were administered to each dog according to the design of the two studies. The results shown in Table 5B include the geometric mean values as well as coefficient of variation (CV) of the pharmacokinetic parameters of the three dosing groups. […] The absolute bioavailability of ARV-471 API is about 7%, and high-fat food can enhance the oral absorption by 2 times.

[3] = Three-way crossover PK of ARV-471 API and ASD compositions, fed beagle dogs; assay type: in vivo; conditions: dog, plasma, 60 mg of API oral, fed condition, geometric mean
Method: as §1, §3, §4, §5
A six-dog, three-way crossover study was performed to evaluate oral bioavailability of ARV-471 API and ASD compositions in beagle dogs in fed condition. There were three study groups, ARV471 API administered in fed condition ASD composition batch no. P220215-1 administered in fed condition, and ASD composition batch no. P220215-2 administered in fed condition, each containing 2 dogs. Capsules were filled with API powder, ASD composition from batch no. P220215-1 and ASD composition from batch no. P220215-2, respectively. […]

[4] = cited from earlier work
[5] = Table 1, footnote 1: Heimbach et al., J Pharm Sci 108 (2019); cited from earlier work
[6] = PK of ARV-110 API capsules, fasted vs high-fat fed beagle dogs; assay type: in vivo; conditions: API capsules 45 mg oral; for AUC(0-inf) / AUC(0-t) / Cmax: beagle, dog, in vivo, po, 45 mg, geometric mean
Method: Then, the capsule filled with ARV-110 API was prepared to compare the absorption advantage of our ASD formulation. Each capsule contained 45 mg ARV-110 API. The capsules were tested orally in three beagle dogs under two different dosing pretreatments (with or without high-fat food). During the study, the dogs were allowed to drink water freely and were fasted for 12 hours before administration, for the dosing pretreatment of the fasted condition, all dogs were given food 4 hours after drug administration. Each dog was administered together with 50 ml water. For the dosing pretreatment of the fed condition, all dogs were given a high-fat food 30 minutes prior to dosing.
as §4, with “the following” for “the different”, “time points: 0 h (before test drug administration), and 0.5, 1, 1.5, 2, 3, 4, 5, 6, 8, 10, 12, 24, 48, 72 h” for “time points”, “administration. ARV-110 plasma” for “administration. Plasma”
The results shown in Table 3C include the geometric mean values as well as coefficient of variation (CV) of the pharmacokinetic parameters of two dosing groups. […] The high-fat fed condition can enhance the oral absorption by about 6-folds compared to fasted condition.

[7] = Three-way crossover PK of ARV-110 API and ASD compositions, fed beagle dogs; conditions: in vivo, 50 mg API per dog oral, fed condition, geometric mean
Method: The capsules were given at the dose of 50 mg API per dog for oral administration for each group in fed condition.

[8] = PK of ARV-110 API, i.v. injection vs oral capsule, fasted beagle dogs (absolute oral bioavailability); assay type: in vivo; conditions: for AUC(0-inf) / AUC(0-t) / Cmax: fasted condition, geometric mean
Method: The XRPD testing was performed on both API only (ARV-110) and the ASD formulation Batch No. P210803 using D2-Phasher (Bruker) equipment, and with the following parameters: generator, 30.0 kV/10.0 mA; detector, Lynxeye; wavelength, Cu Kal(1.54060); scan mode, continuous PSD fast; scan range, 4-40 degree; step Size, 0.01 degree; time/step, 0.5 s; sample stage rotation, 15 r/min. […] P210803 were in amorphous state. ARV-110 is still under developing in clinical stage. To measure the absolute oral bioavailability, the capsule filled with ARV-110 API was prepared only for oral administration in fasted condition. API was dissolved in DMA and Solutol mixed solution for injection. Three beagle dogs were tested in two dosing groups, one group was for oral, 50 mg dose per dog, and the other group for injection, 5 mg dose per dog. During the study, the dogs were allowed to drink water freely and were fasted for 12 hours before administration, all dogs were given food 4 hours after drug administration. Each dog was administered together with 50 ml water.
as §4, with “the following” for “the different”, “time points: 0 h (before test drug administration), and 0.25, 0.5, 1, 1.5, 2, 4, 6, 8, 10, 24 h” for “time points”, “administration. ARV-110 plasma” for “administration. Plasma”, “Cmax, AUClast,” for “Cmax, AUClast”, “different dosing” for “different doing”
The results shown in Table 3B include the geometric mean values as well as coefficient of variation (CV) of the pharmacokinetic parameters of the two dosing groups. […] The absolute bioavailability of ARV-110 is about 6.0%.

[9] = beagle, dog, plasma, iv, 6 mg, i.v. 6 mg, fasted condition
[10] = beagle, dog, plasma, po, 60 mg, API capsule oral 60 mg, fasted condition
[11] = beagle, dog, plasma, po, 60 mg, API capsule oral 60 mg, fed condition
[12] = beagle, in vivo, iv, I.V. injection 5 mg per dog
[13] = beagle, in vivo, API oral capsule 50 mg per dog

- enhancement of oral absorption by high-fat food vs fasted condition ([1]; API 200 mg oral): 2 times
- AUC(0-inf) ([1]; fasted condition): 7650 ng·h/mL
- AUC(0-t) ([1]; fasted condition): 7140 ng·h/mL
- Cmax ([1]; fasted condition): 415 ng/mL
- AUC(0-inf) ([1]; fed condition): 15600 ng·h/mL
- AUC(0-t) ([1]; fed condition): 14700 ng·h/mL
- Cmax ([1]; fed condition): 860 ng/mL
- enhancement of oral absorption by high-fat food ([2]; API oral 60 mg, fed vs fasted): 2 times
- oral absorption (in words) ([2]; amorphous API oral 60 mg, fasted dogs): poor absorption in fasted condition
- AUC(0-inf) [2, 9]: 3220 ng·h/mL
- AUC(0-t) [2, 9]: 3120 ng·h/mL
- Cmax [2, 9]: 609 ng/mL
- AUC(0-inf) [2, 10]: 2480 ng·h/mL
- AUC(0-t) [2, 10]: 2360 ng·h/mL
- Cmax [2, 10]: 200 ng/mL
- AUC(0-inf) [2, 11]: 5230 ng·h/mL
- AUC(0-t) [2, 11]: 5020 ng·h/mL
- Cmax [2, 11]: 428 ng/mL
- bioavailability ([2]; beagle, dog, plasma, oral 60 mg vs i.v. 6 mg, fasted dogs, read-out: absolute bioavailability): ~7%
- AUC(0-inf) [3]: 5840 ng·h/mL
- AUC(0-t) [3]: 5600 ng·h/mL
- Cmax [3]: 381 ng/mL
Compound: O=C1CC[C@H](N2Cc3cc(N4CCN(CC5CCN(c6ccc([C@@H]7c8ccc(O)cc8CC[C@@H]7c7ccccc7)cc6)CC5)CC4)ccc3C2=O)C(=O)N1 [ARV-471, (3S)-3-[5-[4-[[1-[4-[(1R,2S)-6-hydroxy-2-phenyl-tetralin-1-yl]phenyl]-4-piperidyl]methyl]piperazin-1-yl]-1-oxo-isoindolin-2-yl]piperidine-2,6-dione]
- dissolution in the aqueous solution (in words) [4]: very hard to dissolve in the aqueous solution

- enhancement of oral absorption, high-fat fed vs fasted condition [6]: about 6 folds
- food effect (in words) ([6]; fed vs fasted): significant food effect
- AUC(0-inf) ([6]; fasted condition): 278 ng·h/mL
- AUC(0-t) ([6]; fasted condition): 218 ng·h/mL
- Cmax ([6]; fasted condition): 7.6 ng/mL
- AUC(0-inf) ([6]; fed condition (high-fat food)): 1550 ng·h/mL
- AUC(0-t) ([6]; fed condition (high-fat food)): 1410 ng·h/mL
- Cmax ([6]; fed condition (high-fat food)): 56.5 ng/mL
- AUC(0-inf) [7]: 3000 ng·h/mL
- AUC(0-t) [7]: 2570 ng·h/mL
- Cmax [7]: 80.3 ng/mL
- oral absorption (in words) ([8]; amorphous API, oral 50 mg, fasted dogs): poor absorption in fasted condition
- bioavailability ([8]; beagle, dog, in vivo, 50 mg per dog, oral 50 mg vs i.v. 5 mg, fasted dogs): ~6%
- AUC(0-inf) [8, 12]: 866 ng·h/mL
- AUC(0-t) [8, 12]: 588 ng·h/mL
- Cmax [8, 12]: 575 ng/mL
- AUC(0-inf) [8, 13]: 279 ng·h/mL
- AUC(0-t) [8, 13]: 162 ng·h/mL
- Cmax [8, 13]: 10.7 ng/mL
Compound: N#Cc1ccc(O[C@H]2CC[C@H](NC(=O)c3ccc(N4CCC(CN5CCN(c6cc7c(cc6F)C(=O)N(C6CCC(=O)NC6=O)C7=O)CC5)CC4)nn3)CC2)cc1Cl (some centres unmarked) [ARV-110, N-((1r,4r)-4-(3-chloro-4-cyanophenoxy)cyclohexyl)-6-(4-((4-(2-(2,6-dioxopiperidin-3-yl)-6-fluoro-1,3-dioxoisoindolin-S-yl)piperazin-1-yl)methyl)piperidin-1-yl)pyridazine-3-carboxamide]
- Calculated log P [5]: 5.8^1
- dissolution in the aqueous solution (in words) [4]: very hard to dissolve in the aqueous solution
